# Test system: Phakopsora pachyrhizi
# Test: Curative activity against soybean rust caused by Phakopsora pachyrhizi (greenhouse, soybean seedlings)
# Assay type: in vivo
# Conditions: 300 ppm active compound, sprayed to runoff two days after inoculation of soybean seedlings, rated after a further 10 days; untreated plants 90% infected
# Protocol: The active compounds were prepared separately or together as a stock solution with 25 mg of active compound, which was made up to 10 ml with a mixture of acetone and/or DMSO and the emulsifier Uniperol® EL (wetting agent with emulsifying and dispersant action based on ethoxylated alkylphenols) in the volume ratio solvent/emulsifier of from 99 to 1. Subsequently, it was made up to 100 ml with water. This stock solution was diluted with the described solvent/emulsifier/water mixture to the active compound concentration indicated below. Alternatively to this, the active compounds were used as a commercially available ready-to-use solution and diluted with water to the active compound concentration indicated.
# Leaves of soybean seedlings grown in pots were inoculated with a spore suspension of soybean rust (Phakpsora pachyrhizi). The pots were then placed in a chamber of high atmospheric humidity (90 to 95%) and 23 to 27° C. for 24 hours. During this time, the spores germinated and the germ tubes penetrated into the leaf tissue. The infected plants were then cultivated further in a greenhouse at temperatures between 23 and 27° C. and 60 to 80% relative atmospheric humidity. After two days, the plants were sprayed to runoff point with the active compound solution described above at the active compound concentration indicated below. After the spray coating had dried on, the test plants were cultivated in a greenhouse at temperatures between 23 and 27° C. and 60 to 80% relative atmospheric humidity for a further 10 days. The extent of the rust fungus development on the leaves was then determined visually in % infection.
row,SMILES,"extent of the rust fungus development on the leaves, determined visually in % infection"
1,"CC(C)(C)C(O)C(CCCCOc1ccccc1F)n1ncnc1S (stereo not drawn) [I.A1, 8-(2-fluorophenoxy)-4-(5-mercapto-[1,2,4]triazol-1-yl)-2,2-dimethyloctan-3-ol]",15%
2,"CC(C)(C)C(O)C(CCCCOc1cc(F)ccc1F)n1ncnc1S (stereo not drawn) [I.A4, 8-(2,5-difluorophenoxy)-4-(5-mercapto-[1,2,4]triazol-1-yl)-2,2-dimethyloctan-3-ol]",15%
3,"CC(C)(C)C(O)C(CCCCOc1c(F)cccc1Cl)n1ncnc1S (stereo not drawn) [I.A5, 8-(2-Chloro-6-fluorophenoxy)-4-(5-mercapto-[1,2,4]triazol-1-yl)-2,2-dimethyloctan-3-ol]",15%
